Results on 26 compounds are retold here after patent publication US20120157471A1, “BENZIMIDAZOLE DERIVATIVES” (PFIZER INC., priority 2009, published 2012).

For orientation: IC50 means the point on the concentration scale where inhibition reaches its midpoint. Low values mean inhibition by little substance, high ones a need for much substance.

Assay [1] has as its target T1, human Smo (amino acids 181-787) (Homo sapiens, UniProt Q99835).
T1 construct: expressed in transfected cells; membrane preparation
Put plainly: Smo radioligand competition binding assay (displacement of 3H-PF-03451358 from HEK293 membranes). To be noted: for inhibition at 0.05 µM: 0.05 μM test compound, displacement of 3H-PF-03451358, read-out: SMO % inh. @ 0.05 μM; for IC50: radioligand competition binding. A digest of the protocol:
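Membranes (40 μg protein/well) from HEK293 expressing murine Igk-leader-fused Smo 181-787 incubated 2 h at room temperature with 3 nM 3H-PF-03451358 in Tris pH 7.5/NaCl/MgCl2/EDTA/BSA buffer; filter-bound counts by scintillation. Nonspecific binding with 30 μM cold PF-03451358; IC50 from four-parameter fit of % inhibition.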

Another assay has as its system Gli-Luc/MEF cells (Smo). Put plainly: Gli-Luc/MEF assay (Shh-stimulated luciferase reporter under the Gli response element). Format: cell-based, mouse. Conditions: Mus musculus, MEF, 48 h. The method in brief: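 Mouse Gli-Luc/MEF cells dosed with compound (3-fold series, […]) plus 2 μg/mL recombinant mouse Shh, then incubated 48 h at 37° C, 5% CO2. Bright-Glo luminescence read; IC50 calculated from inhibition of Shh-stimulated luciferase.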
For orientation: A reporter such as luciferase makes a cellular process visible.

T1 sequence (Q99835 181-787): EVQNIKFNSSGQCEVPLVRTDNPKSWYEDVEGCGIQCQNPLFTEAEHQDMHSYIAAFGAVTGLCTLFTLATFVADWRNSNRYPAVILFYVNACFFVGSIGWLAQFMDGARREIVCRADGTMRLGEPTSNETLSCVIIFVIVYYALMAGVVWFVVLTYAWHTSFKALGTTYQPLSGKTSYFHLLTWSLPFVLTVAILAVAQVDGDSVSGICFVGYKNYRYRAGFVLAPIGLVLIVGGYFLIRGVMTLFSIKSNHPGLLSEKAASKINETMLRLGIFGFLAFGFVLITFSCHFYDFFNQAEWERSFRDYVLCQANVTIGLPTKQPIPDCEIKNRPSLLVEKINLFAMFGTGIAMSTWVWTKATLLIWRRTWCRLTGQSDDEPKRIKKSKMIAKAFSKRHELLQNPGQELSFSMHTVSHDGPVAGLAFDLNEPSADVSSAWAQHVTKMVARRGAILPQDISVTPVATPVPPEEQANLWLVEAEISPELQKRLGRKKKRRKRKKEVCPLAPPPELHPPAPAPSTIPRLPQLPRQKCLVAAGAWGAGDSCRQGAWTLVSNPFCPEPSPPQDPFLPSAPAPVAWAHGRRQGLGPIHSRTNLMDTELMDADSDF

Turning to `Cn1c(-c2cc(N3CCC(O)(CO)CC3)ncc2Cl)nc2ccccc21` [Example A-69, 1-[5-chloro-4-(1-methyl-1H-benzimidazol-2-yl)pyridin-2-yl]-4-(hydroxymethyl)piperidin-4-ol], in assay [1], the inhibition at 0.05 µM came to 94% and the IC50 was 0.027 µM. Inhibition in the assay with Gli-Luc/MEF cells (Smo) was half-maximal at 0.01 µM (IC50).
On the same counts, the results for `CCn1nnnc1C1CN(c2cc(-c3nc4ccccc4n3C)c(Cl)cn2)CCO1` (stereo not drawn) [Example A-71, 2-{5-chloro-2-[2-(1-ethyl-1H-tetrazol-5-yl)morpholin-4-yl]pyridin-4-yl}-1-methyl-1H-benzimidazole] are 94%, 0.018 µM and 0.01 µM.
Regarding `CN(CCS(C)(=O)=O)c1cc(-c2nc3ccccc3n2C)c(Cl)cn1` [Example A-72, 5-chloro-N-methyl-4-(1-methyl-1H-benzimidazol-2-yl)-N-[2-(methylsulfonyl)ethyl]pyridin-2-amine], in assay [1], the inhibition at 0.05 µM came to 94% and the IC50 was determined as 0.025 µM. In the assay with Gli-Luc/MEF cells (Smo), this compound gave an IC50 of 0.012 µM.
In the case of `Cn1ccnc1C(O)C1CCN(c2cc(-c3nc4ccccc4n3C)c(Cl)cn2)CC1` (stereo not drawn) [Example A-73, {1-[5-chloro-4-(1-methyl-1H-benzimidazol-2-yl)pyridin-2-yl]piperidin-4-yl}(1-methyl-1H-imidazol-2-yl)methanol], in assay [1], the inhibition at 0.05 µM is 93%. Besides, the IC50 in assay [1] turned out to be 0.045 µM; in the assay on Gli-Luc/MEF cells (Smo) it was 0.025 µM.
As for `Cn1c(-c2cc(N3CCC(C(=O)NCCO)CC3)ncc2Cl)nc2ccccc21` [Example A-74, 1-[5-chloro-4-(1-methyl-1H-benzimidazol-2-yl)pyridin-2-yl]-N-(2-hydroxyethyl)piperidine-4-carboxamide], the inhibition at 0.05 µM in assay [1] is 93%. Also, the results for the IC50 (in assay [1]; in the assay on Gli-Luc/MEF cells (Smo)) were 0.027 µM and 0.011 µM, respectively.
For the compound `Cn1c(-c2cc(N3CCC(C#N)CC3)ncc2Cl)nc2ccccc21` [Example A-75, 1-[5-chloro-4-(1-methyl-1H-benzimidazol-2-yl)pyridin-2-yl]piperidine-4-carbonitrile], in assay [1], the inhibition at 0.05 µM stood at 92% and the IC50 stood at 0.023 µM. Half-maximal inhibition in the assay with Gli-Luc/MEF cells (Smo) (IC50) was put at 0.011 µM.
On to `Cn1c(-c2cc(N3CCOC(c4nc(C5CC5)no4)C3)ncc2Cl)nc2ccccc21` (stereo not drawn) [Example A-76, 2-{5-chloro-2-[2-(3-cyclopropyl-1,2,4-oxadiazol-5-yl)morpholin-4-yl]pyridin-4-yl}-1-methyl-1H-benzimidazole], for which, in assay [1], the inhibition at 0.05 µM was 92% and the IC50 stood at 0.035 µM. This compound had an IC50 in the assay on Gli-Luc/MEF cells (Smo) of 0.018 µM.
In the case of `CN1CC2(CCN(c3cc(-c4nc5ccccc5n4C)c(Cl)cn3)CC2)CC1=O` [Example A-77, 8-[5-chloro-4-(1-methyl-1H-benzimidazol-2-yl)pyridin-2-yl]-2-methyl-2,8-diazaspiro[4.5]decan-3-one], in assay [1], the inhibition at 0.05 µM was 92% and the IC50 turned out to be 0.029 µM. Half-maximal inhibition in the assay with Gli-Luc/MEF cells (Smo) (IC50) required 0.015 µM.
On the same counts, the results for `Cn1nc2n(c1=O)CCN(c1cc(-c3nc4ccccc4n3C)c(Cl)cn1)CC2` [Example A-78, 7-[5-chloro-4-(1-methyl-1H-benzimidazol-2-yl)pyridin-2-yl]-2-methyl-2,5,6,7,8,9-hexahydro-3H-[1,2,4]triazolo[4,3-d][1,4]diazepin-3-one] are 92%, 0.014 µM and 0.011 µM.
On to `Cn1c(-c2cc(N3CCC(OCCO)CC3)ncc2Cl)nc2ccccc21` [Example A-79, 2-({1-[5-chloro-4-(1-methyl-1H-benzimidazol-2-yl)pyridin-2-yl]piperidin-4-yl}oxy)ethanol], for which, in assay [1], the inhibition at 0.05 µM is 92% and the IC50 came out at 0.023 µM. The IC50 in the assay on Gli-Luc/MEF cells (Smo) is 0.007 µM.
On to `Cn1c(-c2cc(N3CCC(C(=O)N4CCOCC4)CC3)ncc2Cl)nc2ccccc21` [Example A-80, 2-{5-chloro-2-[4-(morpholin-4-ylcarbonyl)piperidin-1-yl]pyridin-4-yl}-1-methyl-1H-benzimidazole], for which, in assay [1], the inhibition at 0.05 µM came out at 92% and the IC50 came out at 0.045 µM. Besides, half-maximal inhibition with Gli-Luc/MEF cells (Smo) (IC50) required 0.008 µM.
With `Cn1c(-c2cc(N3CCC(N4CCCC4=O)CC3)ncc2Cl)nc2ccccc21` [Example A-81, 1-{1-[5-chloro-4-(1-methyl-1H-benzimidazol-2-yl)pyridin-2-yl]piperidin-4-yl}pyrrolidin-2-one], in assay [1], the inhibition at 0.05 µM is 91% and the IC50 turned out to be 0.024 µM. The IC50 in the assay with Gli-Luc/MEF cells (Smo) was 0.01 µM.
On to `Cn1c(-c2cc(N3C[C@@H](CO)[C@@H](CO)C3)ncc2Cl)nc2ccccc21` [Example A-82, {(3R,4S)-1-[5-chloro-4-(1-methyl-1H-benzimidazol-2-yl)pyridin-2-yl]pyrrolidine-3,4-diyl}dimethanol], for which, in assay [1], the inhibition at 0.05 µM came to 91% and the IC50 worked out at 0.043 µM. In the assay with Gli-Luc/MEF cells (Smo), this compound gave an IC50 of 0.016 µM.
Turning to `COCCc1nnc2n1CCN(c1cc(-c3nc4ccccc4n3C)c(Cl)cn1)C2` [Example A-83, 7-[5-chloro-4-(1-methyl-1H-benzimidazol-2-yl)pyridin-2-yl]-3-(2-methoxyethyl)-5,6,7,8-tetrahydro[1,2,4]triazolo[4,3-a]pyrazine], the inhibition at 0.05 µM in assay [1] amounted to 91%. The figures for the IC50 (in assay [1]; in the assay on Gli-Luc/MEF cells (Smo)) were 0.049 µM and 0.023 µM, respectively.
For `CNC(=O)COC1CCN(c2cc(-c3nc4ccccc4n3C)c(Cl)cn2)CC1` [Example A-84, 2-({1-[5-chloro-4-(1-methyl-1H-benzimidazol-2-yl)pyridin-2-yl]piperidin-4-yl}oxy)-N-methylacetamide], in that order: 91%, 0.021 µM and 0.042 µM.
As to `Cn1c(-c2cc(N3CCC(CO)(CCO)C3)ncc2Cl)nc2ccccc21` (stereo not drawn) [Example A-85, 2-{1-[5-chloro-4-(1-methyl-1H-benzimidazol-2-yl)pyridin-2-yl]-3-(hydroxymethyl)pyrrolidin-3-yl}ethanol], in assay [1], the inhibition at 0.05 µM was 90% and the IC50 was found to be 0.017 µM. In the assay on Gli-Luc/MEF cells (Smo), this compound gave an IC50 of 0.007 µM.
With `Cn1c(-c2cc(N3CCN(C4CCS(=O)(=O)C4)CC3)ncc2Cl)nc2ccccc21` (stereo not drawn) [Example A-86, 2-{5-chloro-2-[4-(1,1-dioxidotetrahydro-3-thienyl)piperazin-1-yl]pyridin-4-yl}-1-methyl-1H-benzimidazole], in assay [1], the inhibition at 0.05 µM came to 90% and the 50% inhibitory concentration (IC50) came out at 0.061 µM. Moreover, half-maximal inhibition with Gli-Luc/MEF cells (Smo) (IC50) was put at 0.043 µM.
For `CC(=O)NCC1CCN(c2cc(-c3nc4ccccc4n3C)c(Cl)cn2)CC1` [Example A-87, N-({1-[5-chloro-4-(1-methyl-1H-benzimidazol-2-yl)pyridin-2-yl]piperidin-4-yl}methyl)acetamide], in that order: 89%, 0.058 µM and 0.009 µM.
With `Cn1c(-c2cc(N3CCC(O)(CN4CCOCC4)CC3)ncc2Cl)nc2ccccc21` [Example A-88, 1-[5-chloro-4-(1-methyl-1H-benzimidazol-2-yl)pyridin-2-yl]-4-(morpholin-4-ylmethyl)piperidin-4-ol], in assay [1], the inhibition at 0.05 µM is 89% and the IC50 amounted to 0.061 µM. The compound also gave a concentration for half-maximal inhibition (IC50) in the assay with Gli-Luc/MEF cells (Smo) of 0.028 µM.
`Cn1c(-c2cc(N3CCS(=O)(=O)CC3)ncc2Cl)nc2ccccc21` [Example A-89, 2-[5-chloro-2-(1,1-dioxidothiomorpholin-4-yl)pyridin-4-yl]-1-methyl-1H-benzimidazole]: the inhibition at 0.05 µM in assay [1] amounted to 88%. The values for the IC50 (in assay [1]; with Gli-Luc/MEF cells (Smo)) were 0.04 µM and 0.044 µM, respectively.
Regarding `COC1CCOC2(CCN(c3cc(-c4nc5ccccc5n4C)c(Cl)cn3)CC2)C1` (stereo not drawn) [Example A-90, 9-[5-chloro-4-(1-methyl-1H-benzimidazol-2-yl)pyridin-2-yl]-4-methoxy-1-oxa-9-azaspiro[5.5]undecane], in assay [1], the inhibition at 0.05 µM worked out at 88% and the IC50 amounted to 0.071 µM. Further, the IC50 with Gli-Luc/MEF cells (Smo) stood at 0.016 µM.
With `Cn1c(-c2cc(N3CCC(N4CCNC(=O)CC4)CC3)ncc2Cl)nc2ccccc21` [Example A-91, 1-{1-[5-chloro-4-(1-methyl-1H-benzimidazol-2-yl)pyridin-2-yl]piperidin-4-yl}-1,4-diazepan-5-one], in assay [1], the inhibition at 0.05 µM amounted to 88% and the half-inhibitory concentration (IC50) was determined as 0.055 µM. In the assay with Gli-Luc/MEF cells (Smo), this compound gave an IC50 of 0.016 µM.
In the case of `COCc1nnc2n1CCN(c1cc(-c3nc4ccccc4n3C)c(Cl)cn1)CC2` [Example A-93, 7-[5-chloro-4-(1-methyl-1H-benzimidazol-2-yl)pyridin-2-yl]-3-(methoxymethyl)-6,7,8,9-tetrahydro-5H-[1,2,4]triazolo[4,3-d][1,4]diazepine], in assay [1], the inhibition at 0.05 µM was determined as 87% and the half-inhibitory concentration (IC50) is 0.053 µM. This compound also displayed an IC50 in the assay with Gli-Luc/MEF cells (Smo) of 0.031 µM.
On to `Cn1c(-c2cc(N3CC(O)C3)ncc2Cl)nc2ccccc21` [Example A-94, 1-[5-chloro-4-(1-methyl-1H-benzimidazol-2-yl)pyridin-2-yl]azetidin-3-ol], for which, in assay [1], the inhibition at 0.05 µM was found to be 87% and the IC50 was determined as 0.087 µM. The half-inhibitory concentration (IC50) in the assay on Gli-Luc/MEF cells (Smo) amounted to 0.046 µM.
For the compound `Cn1c(-c2cc(N3CC[C@@H](O)[C@@H](O)C3)ncc2Cl)nc2ccccc21` [Example A-96, (3S,4R)-1-[5-chloro-4-(1-methyl-1H-benzimidazol-2-yl)pyridin-2-yl]piperidine-3,4-diol], in assay [1], the inhibition at 0.05 µM was found to be 86% and the IC50 was found to be 0.046 µM. In addition, in the assay on Gli-Luc/MEF cells (Smo), 0.016 µM corresponded to half-maximal inhibition (IC50).
As to `Cc1nnc(C2CCN(c3cc(-c4nc5ccccc5n4C)c(Cl)cn3)CC2)o1` [Example A-97, 2-{5-chloro-2-[4-(5-methyl-1,3,4-oxadiazol-2-yl)piperidin-1-yl]pyridin-4-yl}-1-methyl-1H-benzimidazole], in assay [1], the inhibition at 0.05 µM turned out to be 85% and the IC50 is 0.032 µM. The IC50 in the assay on Gli-Luc/MEF cells (Smo) came to 0.025 µM.
